Assay results taken from patent publication US20060069132A1, “Azolecarboxamide herbicides” (priority 2004, published 2006).

How the values were obtained:
barnyardgrass [1] = assay: Test A pre-/postemergence herbicide test; assay type: in vivo, Echinochloa crus-galli
Summary of the method: (§1)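 Visual injury scores on a 0–100 scale (100 = complete control) taken about ten days post-treatment in greenhouse against untreated controls; dash means no result. Treatments: preemergence soil spray and postemergence spray to runoff on one- to two-leaf plants 2 to 10 cm tall, surfactant-containing formulation.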

morningglory [2] = assay: Test B pre-/postemergence herbicide test; assay type: in vivo, Ipomoea coccinea
Summary of the method: (§2)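 Species tested were Echinochloa crus-galli, Ipomoea coccinea, Xanthium strumarium and Oryza sativa, treated both before emergence and at the 1- to 4-leaf stage; rice and barnyardgrass were also tested under flooding at 2 leaves. Greenhouse incubation lasted 13–15 days before visual 0–100 scoring.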

pigweed = assay: Test B pre-/postemergence herbicide test; assay type: in vivo, Amaranthus retroflexus
Summary of the method: (§3)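 Response was scored visually 13 to 15 days after treatment against untreated greenhouse controls, 0 meaning no effect and 100 complete control. Formulations (solvent mixture plus surfactant) went onto soil after planting, onto foliage of 1- to 4-leaf plants, and onto 2-leaf plants in a flooded paddy set including rice and barnyardgrass.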

corn = assay: Test B pre-/postemergence herbicide test; assay type: in vivo, Zea mays
Summary of the method: as §3

velvetleaf [3] = assay: Test A pre-/postemergence herbicide test; assay type: in vivo, Abutilon theophrasti
Summary of the method: as §1

rice [4] = assay: Test B pre-/postemergence herbicide test; assay type: in vivo, Oryza sativa; settings: for Plant response rating, Rice: preemergence, 125 g ai/ha, 0 to 100 scale, 0 is no effect, 100 is complete control
Summary of the method: as §3

Surinam grass = assay: Test B pre-/postemergence herbicide test; assay type: in vivo, Urochloa decumbens
Summary of the method: as §3

giant foxtail [5] = assay: Test A pre-/postemergence herbicide test; assay type: in vivo, Setaria faberi
Summary of the method: as §1

cocklebur = assay: Test B pre-/postemergence herbicide test; assay type: in vivo, Xanthium strumarium
Summary of the method: as §2

blackgrass = assay: Test B postemergence herbicide test; assay type: in vivo, Alopecurus myosuroides; settings: scale 0 (no effect) to 100 (complete control); for Plant response rating, Blackgrass: Postemergence, 500 g ai/ha, visual rating after 13 to 15 days; for Blackgrass plant response rating: postemergence, 125 g ai/ha, visual rating
Summary of the method: (§4)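 Plants grow to 1- to 4-leaf stage (2–18 cm) for postemergence spraying, or to 2-leaf stage for the paddy test. Formulated compound is applied. Greenhouse holding lasts 13–15 days. Response is scored visually relative to controls, 0 no effect to 100 complete control; a dash means no result.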

wild oat = assay: Test B postemergence herbicide test; assay type: in vivo, Avena fatua; settings: scale 0 (no effect) to 100 (complete control); for Plant response rating, Oat, Wild: Postemergence, 500 g ai/ha, visual rating after 13 to 15 days; for Oat, Wild plant response rating: postemergence, 125 g ai/ha, visual rating
Summary of the method: (§5)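 After treating 2-leaf paddy plants or 2–18 cm postemergence plants (1 to 4 leaves) with formulated chemical, researchers kept them in a greenhouse for 13–15 days. Effects were judged visually versus controls: 0 indicates none, 100 total control.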

redroot pigweed = assay: Test A pre-/postemergence herbicide test; assay type: in vivo, Amaranthus retroflexus
Summary of the method: as §1

lambsquarters = assay: Test B pre-/postemergence herbicide test; assay type: in vivo, Chenopodium album
Summary of the method: as §3

large crabgrass [6] = assay: Test B pre-/postemergence herbicide test; assay type: in vivo, Digitaria sanguinalis
Summary of the method: as §3

ducksalad = assay: Test B flooded paddy test; assay type: in vivo, Heteranthera limosa; settings: 1000 g ai/ha, visual rating, scale 0 to 100 (0 no effect, 100 complete control), 13 to 15 days
Summary of the method: as §4

wheat = assay: Test B postemergence herbicide test; assay type: in vivo, Triticum aestivum; design: key to Wheat plant response rating: 0 = no effect, 100 = complete control; settings: scale 0 (no effect) to 100 (complete control); for Plant response rating, Wheat: Postemergence, 500 g ai/ha, visual rating after 13 to 15 days; for Wheat plant response rating: postemergence, 125 g ai/ha, visual rating
Summary of the method: as §5

large crabgrass [7] = assay: Test A pre-/postemergence herbicide test; assay type: in vivo, Digitaria sanguinalis
Summary of the method: as §1

rice [8] = assay: Test B flooded paddy test; assay type: in vivo, Oryza sativa; settings: 1000 g ai/ha, visual rating, scale 0 to 100 (0 no effect, 100 complete control), 13 to 15 days
Summary of the method: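 Postemergence plants were sprayed with formulated test chemicals at 2 to 18 cm height (1- to 4-leaf stage); paddy species were grown to the 2-leaf stage. After 13 to 15 days in a greenhouse, injury was rated visually against untreated controls on a 0–100 scale (0 = no effect, 100 = complete control).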

barnyardgrass [9] = assay: Test B pre-/postemergence herbicide test; assay type: in vivo, Echinochloa crus-galli
Summary of the method: as §2

giant foxtail [10] = assay: Test B pre-/postemergence herbicide test; assay type: in vivo, Setaria faberi
Summary of the method: as §3

velvetleaf [11] = assay: Test B pre-/postemergence herbicide test; assay type: in vivo, Abutilon theophrasti
Summary of the method: as §3

[12] = system: small flower umbrella sedge; assay: Test B flooded paddy test; assay type: in vivo, Cyperus difformis; settings: 1000 g ai/ha, visual rating, scale 0 to 100 (0 no effect, 100 complete control), 13 to 15 days
Summary of the method: as §4

barnyardgrass [13] = assay: Test B flooded paddy test; assay type: in vivo, Echinochloa crus-galli; settings: 1000 g ai/ha, visual rating, scale 0 to 100 (0 no effect, 100 complete control), 13 to 15 days
Summary of the method: as §4

morningglory [14] = assay: Test A pre-/postemergence herbicide test; assay type: in vivo, Ipomoea spp.
Summary of the method: as §1

[15] = Postemergence, 500 g ai/ha, 0 to 100 scale, 0 no effect, 100 complete control
[16] = Postemergence, 2000 g ai/ha, 0 to 100 scale, 0 no effect, 100 complete control
[17] = Preemergence, 500 g ai/ha, visual rating, 0 to 100 scale (0 no effect, 100 complete control)
[18] = Preemergence, 2000 g ai/ha, 0 to 100 scale, 0 no effect, 100 complete control
[19] = Postemergence, 500 g ai/ha, visual rating after 13 to 15 days, scale 0 (no effect) to 100 (complete control)
[20] = Preemergence, 500 g ai/ha, scale 0 to 100
[21] = postemergence, 125 g ai/ha, visual rating, scale 0 (no effect) to 100 (complete control)
[22] = preemergence, 125 g ai/ha, 0 to 100 scale, 0 is no effect, 100 is complete control

CCn1nc(C(C)(C)C)cc1C(=O)Nc1cccc2c1CNC2=O [Compound 52]
25: Plant response rating, Barnyardgrass (barnyardgrass [1]; [15]) | Barnyardgrass plant response rating (barnyardgrass [1]; [17]) | Plant response rating, Foxtail, Giant (giant foxtail [5]; [15]) | Plant response rating, Foxtail, Giant (giant foxtail [5]; [16])
15: Velvetleaf plant response rating (velvetleaf [3]; [17])
20: Plant response rating, Velvetleaf (velvetleaf [3]; [16]) | Foxtail, Giant plant response rating (giant foxtail [5]; [17]) | Cocklebur plant response rating (cocklebur; [21]) | Plant response rating, Crabgrass, Large (large crabgrass [6]; [22]) | Ducksalad plant response rating (ducksalad) | Plant response rating, Crabgrass, Large (large crabgrass [7]; [16]) | Plant response rating, Velvetleaf (velvetleaf [11]; [19]) | Velvetleaf plant response rating (velvetleaf [11]; [20]) | Barnyardgrass plant response rating (barnyardgrass [13])
35: Plant response rating, Pigweed (redroot pigweed; [16])
60: Foxtail, Giant plant response rating (giant foxtail [5]; [18]) | Barnyardgrass plant response rating (barnyardgrass [9]; [20]) | Foxtail, Giant plant response rating (giant foxtail [10]; [20])
55: Plant response rating, Barnyardgrass (barnyardgrass [1]; [16])
50: Velvetleaf plant response rating (velvetleaf [3]; [18])
30: Surinam Grass plant response rating (Surinam grass; [20]) | Plant response rating, Pigweed (redroot pigweed; [15])
70: Crabgrass, Large plant response rating (large crabgrass [7]; [17])
90: Barnyardgrass plant response rating (barnyardgrass [1]; [18]) | Pigweed plant response rating (pigweed; [20]) | Pigweed plant response rating (redroot pigweed; [17]) | Pigweed plant response rating (redroot pigweed; [18]) | Lambsquarters plant response rating (lambsquarters; [20]) | Crabgrass, Large plant response rating (large crabgrass [6]; [20]) | Crabgrass, Large plant response rating (large crabgrass [7]; [18])
0: Plant response rating, Morningglory (morningglory [2]; [19]) | Morningglory plant response rating (morningglory [2]; [20]) | Morningglory plant response rating (morningglory [2]; [21]) | Plant response rating, Morningglory (morningglory [2]; [22]) | Pigweed plant response rating (pigweed; [21]) | Plant response rating, Pigweed (pigweed; [22]) | Corn plant response rating (corn; [20]) | Plant response rating, Corn (corn; [22]) | Plant response rating, Rice (rice [4]) | Plant response rating, Surinam Grass (Surinam grass; [19]) | Surinam Grass plant response rating (Surinam grass; [21]) | Plant response rating, Surinam Grass (Surinam grass; [22]) | Plant response rating, Cocklebur (cocklebur; [22]) | Plant response rating, Blackgrass (blackgrass) | Blackgrass plant response rating (blackgrass) | Oat, Wild plant response rating (wild oat) | Lambsquarters plant response rating (lambsquarters; [21]) | Plant response rating, Lambsquarters (lambsquarters; [22]) | Crabgrass, Large plant response rating (large crabgrass [6]; [21]) | Plant response rating, Wheat (wheat) | Wheat plant response rating (wheat) | Plant response rating, Crabgrass, Large (large crabgrass [7]; [15]) | Rice plant response rating (rice [8]) | Plant response rating, Barnyardgrass (barnyardgrass [9]; [19]) | Barnyardgrass plant response rating (barnyardgrass [9]; [21]) | Plant response rating, Velvetleaf (velvetleaf [11]; [22]) | Plant response rating, Morningglory (morningglory [14]; [15]) | Plant response rating, Morningglory (morningglory [14]; [16]) | Morningglory plant response rating (morningglory [14]; [17])
10: Plant response rating, Pigweed (pigweed; [19]) | Corn plant response rating (corn; [21]) | Cocklebur plant response rating (cocklebur; [20]) | Plant response rating, Oat, Wild (wild oat) | Plant response rating, Crabgrass, Large (large crabgrass [6]; [19]) | Plant response rating, Barnyardgrass (barnyardgrass [9]; [22]) | Plant response rating, Foxtail, Giant (giant foxtail [10]; [19]) | Foxtail, Giant plant response rating (giant foxtail [10]; [21]) | Plant response rating, Foxtail, Giant (giant foxtail [10]; [22]) | Velvetleaf plant response rating (velvetleaf [11]; [21]) | Morningglory plant response rating (morningglory [14]; [18])
80: Rice plant response rating (rice [4]; [20]) | Plant response rating, Lambsquarters (lambsquarters; [19])
40: Plant response rating, Corn (corn; [19]) | Plant response rating, Cocklebur (cocklebur; [19]) | Sedge, Umbrella plant response rating [12]

CCn1nc(C(C)(C)C)cc1C(=O)Nc1cccc(C(=O)OC)c1C [Compound 87]
50: Plant response rating, Foxtail, Giant (giant foxtail [5]; [16])
100: Crabgrass, Large plant response rating (large crabgrass [6]; [20])
35: Foxtail, Giant plant response rating (giant foxtail [5]; [17]) | Plant response rating, Pigweed (redroot pigweed; [16])
95: Pigweed plant response rating (redroot pigweed; [18]) | Crabgrass, Large plant response rating (large crabgrass [7]; [18])
15: Barnyardgrass plant response rating (barnyardgrass [1]; [15]) | Morningglory plant response rating (morningglory [14]; [15]) | Morningglory plant response rating (morningglory [14]; [17]) | Morningglory plant response rating (morningglory [14]; [18])
55: Plant response rating, Barnyardgrass (barnyardgrass [1]; [16]) | Barnyardgrass plant response rating (barnyardgrass [1]; [17])
80: Foxtail, Giant plant response rating (giant foxtail [10]; [20]) | Sedge, Umbrella plant response rating [12]
10: Velvetleaf plant response rating (velvetleaf [3]; [15]) | Pigweed plant response rating (redroot pigweed; [15]) | Rice plant response rating (rice [8]) | Plant response rating, Foxtail, Giant (giant foxtail [10]; [22])
25: Plant response rating, Velvetleaf (velvetleaf [3]; [16]) | Velvetleaf plant response rating (velvetleaf [3]; [17])
60: Pigweed plant response rating (redroot pigweed; [17]) | Plant response rating, Crabgrass, Large (large crabgrass [6]; [19]) | Plant response rating, Crabgrass, Large (large crabgrass [7]; [16])
20: Foxtail, Giant plant response rating (giant foxtail [5]; [15]) | Ducksalad plant response rating (ducksalad) | Crabgrass, Large plant response rating (large crabgrass [7]; [15]) | Plant response rating, Barnyardgrass (barnyardgrass [9]; [22]) | Barnyardgrass plant response rating (barnyardgrass [13]) | Plant response rating, Morningglory (morningglory [14]; [16])
90: Barnyardgrass plant response rating (barnyardgrass [1]; [18]) | Foxtail, Giant plant response rating (giant foxtail [5]; [18]) | Plant response rating, Crabgrass, Large (large crabgrass [6]; [22]) | Crabgrass, Large plant response rating (large crabgrass [7]; [17])
65: Velvetleaf plant response rating (velvetleaf [3]; Preemergence, 2000 g ai/ha, visual rating, 0 to 100 scale (0 no effect, 100 complete control))
0: Plant response rating, Morningglory (morningglory [2]; [19]) | Morningglory plant response rating (morningglory [2]; [21]) | Plant response rating, Morningglory (morningglory [2]; [22]) | Plant response rating, Pigweed (pigweed; [19]) | Pigweed plant response rating (pigweed; [21]) | Plant response rating, Corn (corn; [19]) | Corn plant response rating (corn; [20]) | Corn plant response rating (corn; [21]) | Plant response rating, Corn (corn; [22]) | Plant response rating, Rice (rice [4]) | Plant response rating, Surinam Grass (Surinam grass; [19]) | Surinam Grass plant response rating (Surinam grass; [21]) | Plant response rating, Surinam Grass (Surinam grass; [22]) | Plant response rating, Cocklebur (cocklebur; [19]) | Cocklebur plant response rating (cocklebur; [20]) | Cocklebur plant response rating (cocklebur; [21]) | Plant response rating, Cocklebur (cocklebur; [22]) | Plant response rating, Blackgrass (blackgrass) | Blackgrass plant response rating (blackgrass) | Plant response rating, Oat, Wild (wild oat) | Oat, Wild plant response rating (wild oat) | Plant response rating, Lambsquarters (lambsquarters; [19]) | Lambsquarters plant response rating (lambsquarters; [21]) | Crabgrass, Large plant response rating (large crabgrass [6]; [21]) | Plant response rating, Wheat (wheat) | Wheat plant response rating (wheat) | Plant response rating, Barnyardgrass (barnyardgrass [9]; [19]) | Barnyardgrass plant response rating (barnyardgrass [9]; [21]) | Plant response rating, Foxtail, Giant (giant foxtail [10]; [19]) | Foxtail, Giant plant response rating (giant foxtail [10]; [21]) | Plant response rating, Velvetleaf (velvetleaf [11]; [19]) | Velvetleaf plant response rating (velvetleaf [11]; [21]) | Plant response rating, Velvetleaf (velvetleaf [11]; [22])
40: Plant response rating, Pigweed (pigweed; [22])
70: Plant response rating, Lambsquarters (lambsquarters; [22]) | Barnyardgrass plant response rating (barnyardgrass [9]; [20])
